From patent US20260265267A1, “NOVEL COMPOUNDS WITH MTORC2-INHIBITORY ACTIVITY AND USES THEREOF” (Aliad Biopharma, priority 2023, published 2026) come the findings set out here.

For one assay, the system named is LC3-II. Put plainly: LC3-II formation as indicator of autophagy in HeLa cells (Western blot). As to conditions: Homo sapiens, 9 hours, read-out: LC3-II (% control). Format: cell-based, human. The protocol: (§1) Specifically, HeLa cells were cultured in a 5% CO2 incubator at 37° C. in DMEM (Dulbecco's Modified Eagles Media) medium supplemented with 10% FBS, penicillin (100 unit/ml), and streptomycin (100 μg/ml). Cultivation was started by seeding 4×10^5 cells in a 100 mm culture dish, and subculture was carried out every 3 days.
(§2) Human cell line HeLa cells were seeded in a 60 mm culture dish at a density of 2×10^5 cells/plate, and cultured for 24 hours. Then, HeLa cells were treated with 70 types of compounds at a concentration of 40 μM each for 9 hours. HeLa cells were washed twice with cold 1×PBS, and then lysed with 100 μl of RIPA buffer (50 mM Tris-HCl (pH7.4), 0.25% sodium deoxycholate, 50 mM NaF, 1% NP-40, 150 mM NaCl, 1 mM β-glycerophosphate, 1 mM PMSF, 1 mM NaVO4, 1 μg/ml leupeptin, 1 μg/ml pepstatin A, 10 nM calyculin A, 10 μg/ml aprotinin, 1 mM EDTA) to hemolyze the cell membrane. Then, the lysates were centrifuged at 12,000 rpm at 4° C. for 10 minutes to collect the supernatant, which is cell lysate. Protein concentration in the cell lysate was determined using the BCA protein assay kit (Thermo Fisher Scientific), and equal amounts of protein were separated by SDS-PAGE.
(§3) Western blot analysis was performed by the following method. […] After washing the membrane three times for 5 minutes each with TBS-T buffer, it was incubated with primary antibodies diluted in TBS-T buffer containing 5% skim milk or 5% BSA overnight at 4° C. Subsequently, the membrane was washed three times for 5 minutes each with TBS-T buffer, and then incubated with secondary antibodies diluted in TBS-T buffer containing 5% skim milk at room temperature for 30 minutes. The membrane was washed five times for 5 minutes each with TBS-T buffer containing 5% skim milk, and then the protein bands bound by the secondary antibody were detected using a chemiluminescence method. The primary antibodies used were Akt (cell signaling, #4691), pAkt(S473) (Cell signaling, #4060), p70S6K (Cell signaling, #S6198), pp70S6K(T389) (cell signaling, #9205S), LC3-II (MBL, #PM036), and the secondary antibodies used were HRP conjugated anti-rabbit (Jackson immunoresearch laboratory, #711-035-152) and HRP conjugated anti-mouse IgG (Jackson immunoresearch laboratory, #515-035-072).
LC3-II formation was selected as an indicator of autophagy in HeLa cells, and the LC3-II signal obtained from Western blot analysis was normalized to the pan-Akt signal and the data were expressed as a percentage relative to the control group treated with DMSO only, which is a vehicle.

The target in another assay is T1, mTORC1 (Homo sapiens, UniProt P42345).
T1 construct: the following experiments were conducted in HeLa cells; endogenous in cells; host or cells: HeLa
Put plainly: mTORC1 inhibitory activity in HeLa cells (p70S6K Thr389 phosphorylation, Western blot). It is filed as cell-based. As to conditions: for remaining activity at 40 µM: read-out: pThr389-S6K/S6K (% control); for inhibition at 40 µM: HeLa, 9 h, read-out: reduction in p70S6K Thr389 phosphorylation compared to the control group. The protocol:
as §1, §2, §3
As an mTORC1 activity indicator in HeLa cells, the level of p70S6K Thr389 phosphorylation was selected as a marker, and the level of phosphor-p70S6K (Thr389) signal measured by Western blot analysis was normalized to a level of pan-p70S6K signal, and then expressed as a percentage of the control group treated with only DMSO, which is a vehicle.

The target of a further assay is T2, mTORC2 (Homo sapiens, UniProt P42345).
T2 construct: the following experiments were conducted in HeLa cells; endogenous in cells; host or cells: HeLa
Put plainly: mTORC2 inhibitory activity in HeLa cells (Akt Ser473 phosphorylation, Western blot). Format: cell-based. The conditions noted are these: for selective inhibition of mTORC2: 40 μM, versus mTORC1; for selective inhibition of mTORC2 / remaining activity at 40 µM: 9 hours; for remaining activity at 40 µM: read-out: pSer473-AKT/AKT (% control); for inhibition at 40 µM: HeLa, 9 h, read-out: reduction in Akt Ser473 phosphorylation compared to the control group. The protocol:
as §1, §2, §3
As an mTORC2 activity indicator in HeLa cells, the level of Akt Ser473 phosphorylation was selected as a marker, and the phosphor-Akt (Ser473) signal obtained from Western blot analysis was normalized to the pan-Akt signal, and the data were expressed as a percentage relative to the control group treated with DMSO only, which is a vehicle.

For `O=C1c2cc(F)ccc2COc2cc3c(cc21)OCO3` [HN2203, 9-fluoro[2]benzoxepino[3,4-f]-1,3-benzodioxol-11(6H)-one], the activity at 40 µM with LC3-II was determined as 119%. Further, at mTORC1 (9 hours), the remaining activity at 40 µM was 179%. Also, at mTORC2, the “selective inhibition of mTORC2” value was “selectively inhibit mTORC2”, the remaining activity at 40 µM is 28% and the inhibition at 40 µM was over 20%.
The corresponding values for `CN(C)c1cc2c(cc1F)C(=O)c1cc3c(cc1OC2)OCO3` [HN2209, 8-(dimethylamino)-9-fluoro[2]benzoxepino[3,4-f]-1,3-benzodioxol-11(6H)-one] are 124%, 191%, “selectively inhibit mTORC2”, 54% and over 20%.
Take `O=C1c2cc(F)c(N3CCCCC3)cc2COc2cc3c(cc21)OCO3` [HN2211, 8-(piperidinyl)-9-fluoro[2]benzoxepino[3,4-f]-1,3-benzodioxol-11(6H)-one]: the activity at 40 µM in the assay on LC3-II was 122%. Besides, the remaining activity at 40 µM is 77% on mTORC1 (9 hours) and 118% on mTORC2. Moreover, the inhibition at 40 µM on mTORC1 is over 20%.
Turning to `O=C1c2cc(-c3ccc(Cl)cc3)ccc2COc2cc3c(cc21)OCO3` [HN2214, 9-(4-chlorophenyl)[2]benzoxepino[3,4-f]-1,3-benzodioxol-11(6H)-one], in the assay with LC3-II, the activity at 40 µM was 154%. At mTORC1 (9 hours), the remaining activity at 40 µM was 99%. For the same compound, at mTORC2, the “selective inhibition of mTORC2” value is listed as “selectively inhibit mTORC2”, the remaining activity at 40 µM is 67% and the inhibition at 40 µM is over 20%.
`O=C1c2cc(-c3ccoc3)ccc2COc2cc3c(cc21)OCO3` [HN2216, 9-(3-furanyl)[2]benzoxepino[3,4-f]-1,3-benzodioxol-11(6H)-one]: the activity at 40 µM in the assay on LC3-II came out at 99%. The “increase in S6K Thr389 phosphorylation” value on mTORC1 (40 μM, 9 hours) is reported as 21%. Besides, the remaining activity at 40 µM at mTORC1 (9 hours) came to 121%. Further, at mTORC2, the “selective inhibition of mTORC2” value is on record as “selectively inhibit mTORC2”, the remaining activity at 40 µM worked out at 64% and the inhibition at 40 µM is over 20%.
Consider `Cc1ccc(-c2ccc3c(c2)C(=O)c2cc4c(cc2OC3)OCO4)cc1` [HN2217, 9-(p-tolyl)[2]benzoxepino[3,4-f]-1,3-benzodioxol-11(6H)-one], for which the activity at 40 µM with LC3-II turned out to be 149%. Also, the remaining activity at 40 µM on mTORC1 (9 hours) is 224%. For the same compound, at mTORC2, the “selective inhibition of mTORC2” value was “selectively inhibit mTORC2”, the remaining activity at 40 µM turned out to be 38% and the inhibition at 40 µM was over 20%.
On the same counts, the results for `O=C1c2cc(F)c(N3CCC(Cc4ccccc4)CC3)cc2COc2cc3c(cc21)OCO3` [HN2222, 8-(4-benzylpiperidin-1-yl)-9-fluoro[2]benzoxepino[3,4-f]-1,3-benzodioxol-11(6H)-one] are 89%, 95%, “selectively inhibit mTORC2”, 69% and over 20%.
The corresponding values for `O=C1c2cc3c(cc2OCc2c1ccc(F)c2F)OCO3` [HN2225, 7,8-difluoro[2]benzoxepino[3,4-f]-1,3-benzodioxol-11(6H)-one] are 100%, 100%, “selectively inhibit mTORC2”, 66% and over 20%.
Regarding `O=C1c2cc3c(cc2OCc2c1ccc(NC1CCCCC1)c2F)OCO3` [HN2231, 8-(cyclohexylamino)-7-fluoro[2]benzoxepino[3,4-f]-1,3-benzodioxol-11(6H)-one], the activity at 40 µM with LC3-II is 122%. The remaining activity at 40 µM was determined as 49% on mTORC1 (9 hours) and 100% at mTORC2. Besides, the inhibition at 40 µM on mTORC1 is over 20%.
As to `O=C1c2cc3c(cc2OCc2c1ccc(N1CCC(Cc4ccccc4)CC1)c2F)OCO3` [HN2232, 8-(4-benzylpiperidin-1-yl)-7-fluoro[2]benzoxepino[3,4-f]-1,3-benzodioxol-11(6H)-one], in the assay on LC3-II, the activity at 40 µM was 64%. Further, at mTORC1 (9 hours), the remaining activity at 40 µM came out at 136%. Further, at mTORC2, the “selective inhibition of mTORC2” value was “selectively inhibit mTORC2”, the remaining activity at 40 µM worked out at 48% and the inhibition at 40 µM was over 20%.
The corresponding values for `COc1ccc(CCNc2ccc3c(c2F)COc2cc4c(cc2C3=O)OCO4)cc1` [HN2233, 8-((4-methoxyphenethyl)amino)-7-fluoro[2]benzoxepino[3,4-f]-1,3-benzodioxol-11(6H)-one] are 121%, 107%, “selectively inhibit mTORC2”, 74% and over 20%.
On the same counts, the results for `CS(=O)(=O)Nc1cc2c(cc1F)C(=O)c1cc3c(cc1OC2)OCO3` [HN2301, N-(9-fluoro-11-oxo-6,11-dihydro-[1,3]dioxolo[4′,5′:4,5]benzo[1,2-b]benzo[e]oxepin-8-yl)methanesulfonamide] are 96%, 81%, “selectively inhibit mTORC2”, 54% and over 20%.
For `COc1cc2c(cc1OC)C(=O)c1cc(-c3cc(OC)c(OC)c(OC)c3)ccc1CS2` [HN2305, 2,3-dimethoxy-9-(3,4,5-trimethoxyphenyl)dibenzo[b,e]thiepin-11(6H)-one], the figures for the remaining activity at 40 µM on mTORC1 (9 hours) and on mTORC2 were 64% and 47%, respectively. Also, the inhibition at 40 µM at mTORC1 and at mTORC2 was over 20% each time.
With `COc1ccc(-c2ccc3c(c2)C(=O)c2cc(OC)c(OC)cc2SC3)cc1` [HN2306, 2,3-dimethoxy-9-(4-methoxyphenyl)dibenzo[b,e]thiepin-11(6H)-one], on mTORC1 (9 hours), the remaining activity at 40 µM was found to be 257%. Besides, on mTORC2, the “selective inhibition of mTORC2” value is “selectively inhibit mTORC2”, the remaining activity at 40 µM came out at 64% and the inhibition at 40 µM is over 20%.
Take `COc1cc2c(cc1OC)C(=O)c1cc(-c3ccc(C)cc3)ccc1CS2` [HN2307, 2,3-dimethoxy-9-(p-tolyl)dibenzo[b,e]thiepin-11(6H)-one]: the remaining activity at 40 µM at mTORC1 (9 hours) is 106%. Moreover, on mTORC2, the “selective inhibition of mTORC2” value is recorded as “selectively inhibit mTORC2”, the remaining activity at 40 µM worked out at 72% and the inhibition at 40 µM is over 20%.
The corresponding values for `COc1cc2c(cc1OC)C(=O)c1cc(-c3ccc(Cl)cc3)ccc1CS2` [HN2309, 9-(4-chlorophenyl)-2,3-dimethoxydibenzo[b,e]thiepin-11(6H)-one] are 106%, “selectively inhibit mTORC2”, 66% and over 20%.
In the case of `COc1cc2c(cc1OC)C(=O)c1cc(F)c(NCc3ccccc3)cc1CC2` [HN2317, 2-(benzylamino)-3-fluoro-7,8-dimethoxy-10,11-dihydro-5H-dibenzo[a,d][7]annulen-5-one], the remaining activity at 40 µM on mTORC1 (9 hours) worked out at 69%; on mTORC2, 107%. Also, the inhibition at 40 µM at mTORC1 is over 20%.
